Molecules are shown by their SMILES.

The target in test [1] is T1, human VR1 (Homo sapiens, UniProt Q8NER1).
T1 construct: expressed in transfected cells; host or cells: HEK293
Description: Human VR1 functional assay (FLIPR intracellular Ca2+). The test is classed as cell-based. As to conditions: for Emax at 12 µM / % Response Relative to EC80 of Capsaicin (12 μM) / Emax at 6 µM: agonist response; for Emax at 12 µM: read-out: % Response Relative to EC80 of Capsaicin (12 μM); for h % I (5 μM) / inhibition at 5 µM / inhibition at 1 µM: inhibition of capsaicin response; for IC50: antagonism of capsaicin-induced Ca2+ increase, read-out: h IC50; for inhibition at 5 µM: read-out: h % I (5 μM); for Emax at 6 µM: read-out: % Response Relative to EC80 of Capsaicin (6 μM); for inhibition at 1 µM: read-out: h % I (1 μM). The procedure, abridged:
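HEK293 cells expressing human VR1, loaded with Calcium 3 dye, were exposed to test compounds for 5 min while FLIPR recorded intracellular Ca2+, then challenged with capsaicin at ~80% maximal response ([…]). EC50 or IC50 came from dose-response curves on quadruplicate-well means.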

Test [2] addresses T1, human VR1. Briefly: Human VR1 [3H]RTX binding assay. As to conditions: for Ki: [3H]RTX binding, HEK293 membranes; for inhibition at 1 µM / h Binding % I (1 μM): inhibition of [3H]RTX binding at 1 μM; for inhibition at 1 µM: read-out: h Binding % I (1 μM). The procedure, abridged:
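Membranes from human VR1-transfected HEK293 cells (~120 μg protein/ml) incubated with [3H]RTX in HEPES pH 7.4 with 0.25 mg/mL BSA, 37 C, 60 min. Bound counts by scintillation after α-acid glycoprotein and centrifugation; nonspecific defined with 200 nM unlabelled RTX. Ki from duplicate means.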

T1 sequence (Q8NER1 whole entry): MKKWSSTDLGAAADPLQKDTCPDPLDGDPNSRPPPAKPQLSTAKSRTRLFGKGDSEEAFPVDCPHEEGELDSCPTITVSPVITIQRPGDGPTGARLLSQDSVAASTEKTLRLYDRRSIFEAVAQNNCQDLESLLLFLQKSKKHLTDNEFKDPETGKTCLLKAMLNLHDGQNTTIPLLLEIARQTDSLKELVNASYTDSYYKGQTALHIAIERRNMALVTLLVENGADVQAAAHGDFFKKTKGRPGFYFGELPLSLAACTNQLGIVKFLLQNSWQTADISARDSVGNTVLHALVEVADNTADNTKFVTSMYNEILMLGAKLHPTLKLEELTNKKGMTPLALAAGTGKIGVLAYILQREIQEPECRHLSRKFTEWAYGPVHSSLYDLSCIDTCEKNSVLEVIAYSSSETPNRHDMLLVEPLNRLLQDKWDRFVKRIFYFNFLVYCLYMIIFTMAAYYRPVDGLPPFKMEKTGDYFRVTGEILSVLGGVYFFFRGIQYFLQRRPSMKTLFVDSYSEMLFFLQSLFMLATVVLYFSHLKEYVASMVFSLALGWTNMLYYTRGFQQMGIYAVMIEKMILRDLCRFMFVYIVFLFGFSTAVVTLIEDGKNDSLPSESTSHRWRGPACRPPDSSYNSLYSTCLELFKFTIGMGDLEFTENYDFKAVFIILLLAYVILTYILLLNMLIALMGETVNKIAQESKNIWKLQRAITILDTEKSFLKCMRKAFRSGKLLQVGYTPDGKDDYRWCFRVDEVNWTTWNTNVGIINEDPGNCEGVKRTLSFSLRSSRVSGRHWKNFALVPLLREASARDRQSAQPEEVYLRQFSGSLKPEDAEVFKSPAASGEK

Take `CC(C)(C)c1ccc(CCC(=O)Nc2ccc(-c3cccnc3)nc2)cc1` [Cpd 136]: the Emax at 12 µM in test [1] was 78%. For the same compound, in test [2], affinity was put at a Ki of 103 nM and the inhibition at 1 µM worked out at 84%.
Taken in the same sequence, the figures for `CC(C)(C)c1ccc(CCC(=O)Nc2ccc(-c3ccncc3)nc2)cc1` [Cpd 137] were 96%, 93 nM and 66%.
Take `CC(C)(C)c1csc(CCC(=O)Nc2ccc(-c3ccncc3)cc2)c1` [Cpd 138]: the “% Response Relative to EC80 of Capsaicin (12 μM)” value (from here on “% Response Relative to EC80”) in test [1] worked out at 113%. Further, in test [2], affinity was put at a Ki of 461 nM and the “h Binding % I (1 μM)” value is reported as 61%.
Consider `O=C(CCc1ccc(C(F)(F)F)cc1)Nc1ccc(-c2cccnc2)cc1` [Cpd 142], for which the “% Response Relative to EC80” value in test [1] was 78%. Moreover, in test [2], the “h Binding % I (1 μM)” value is recorded as 45%.
In the case of `O=C(CCc1ccc(C(F)(F)F)cc1)Nc1ccc(-c2ccncc2)cc1` [Cpd 143], the “% Response Relative to EC80” value in test [1] worked out at 111%. Besides, in test [2], the “h Binding % I (1 μM)” value came to 44%.
Taken in the same sequence, the figures for `NC(=O)c1cccc(-c2ccc(NC(=O)CCc3ccc(C(F)(F)F)cc3)cn2)c1` [Cpd 144] were 73% and 1%.
Taken in the same sequence, the figures for `CC(=O)Nc1cccc(-c2ccc(NC(=O)CCc3ccc(C(F)(F)F)cc3)cn2)c1` [Cpd 145] were 92% and 16%.
With `O=C(CCc1ccc(C(F)(F)F)cc1)Nc1ccc(-c2cccc(O)c2)nc1` [Cpd 147], the Emax at 12 µM in test [1] stood at 92%. In test [2], affinity was put at a Ki of 319 nM and the inhibition at 1 µM amounted to 62%.
Take `O=C(CCc1ccc(C(F)(F)F)cc1)Nc1ccc(-c2ccc(O)cc2)nc1` [Cpd 148]: the Emax at 12 µM in test [1] came out at 74%. Moreover, in test [2], affinity was put at a Ki of 98.6 nM and the inhibition at 1 µM stood at 73%.
As for `O=C(CCc1ccc(C(F)(F)F)cc1)Nc1ccc(-c2cccc(CO)c2)nc1` [Cpd 149], in test [1], the “% Response Relative to EC80” value worked out at 101%. The “h Binding % I (1 μM)” value in test [2] stood at 9%.
For `O=C(CCc1ccc(C(F)(F)F)cc1)Nc1ccc(-c2ccc(CO)cc2)nc1` [Cpd 150], the Emax at 12 µM in test [1] was 79%. In addition, in test [2], the Ki amounted to 149 nM and the inhibition at 1 µM came to 75%.
For `O=C(CCc1ccc(C(F)(F)F)cc1)Nc1ccc(-c2cccnc2)nc1` [Cpd 151], in test [1], the “% Response Relative to EC80” value turned out to be 91%. Also, the “h Binding % I (1 μM)” value in test [2] is recorded as 35%.
Take `O=C(CCc1ccc(C(F)(F)F)cc1)Nc1ccc(-c2ccncc2)nc1` [Cpd 152]: in test [1], the “% Response Relative to EC80” value was 100%. Further, the “h Binding % I (1 μM)” value in test [2] was 37%.
Regarding `CC(C)(C)c1ccc(CCC(=O)Nc2ccc(-c3ccncc3)c3ccccc23)cc1` [Cpd 153], the “h % I (5 μM)” value in test [1] amounted to 25%. Further, in test [2], the “h Binding % I (1 μM)” value is 1%.
In the case of `O=C(CCc1ccc(C(F)(F)F)cc1)Nc1ccc(-c2ccncc2)c2ccccc12` [Cpd 157], the “h % I (5 μM)” value in test [1] amounted to 12%. Besides, the “h Binding % I (1 μM)” value in test [2] amounted to 1%.
As for `Cc1cc(NC(=O)CCc2ccc(C(C)(C)C)cc2)cnc1-c1ccccc1O` [Cpd 160, 3-(4-tert-butyl-phenyl)-N-[6-(2-hydroxy-phenyl)-5-methyl-pyridin-3-yl]-propionamide], in test [1], the IC50 worked out at 27 nM and the inhibition at 5 µM amounted to 96%. Moreover, the inhibition at 1 µM in test [2] was found to be 101%.
Turning to `CC(C)(C)c1ccc(CCC(=O)Nc2cc(F)c(-c3ccncc3)c(F)c2)cc1` [Cpd 169], in test [1], the Emax at 6 µM is 45% and the inhibition at 1 µM came to 96%. In addition, the affinity in test [2] corresponds to a Ki of 48 nM.
Taken in the same sequence, the figures for `CC(C)(C)c1ccc(CCC(=O)Nc2ccc(-c3ccncc3)c(CO)c2)cc1` [Cpd 171] were 119%, 60% and 292 nM.
For the compound `CC(C)(C)c1ccc(CCC(=O)Nc2cc(F)c(-c3ccccn3)c(F)c2)cc1` [Cpd 175], the inhibition at 1 µM in test [1] amounted to 75%. In test [2], this compound showed a Ki of 142 nM.
`CC(C)(C)c1ccc(CCC(=O)Nc2ccc(-c3ccccn3)nc2)cc1` [Cpd 176]: in test [1], the inhibition at 1 µM turned out to be 99% and the inhibition at 5 µM was found to be 22%. Besides, in test [2], the inhibitory constant (Ki) came to 66 nM.
Regarding `Cc1cc(NC(=O)CCc2ccc(C(C)(C)C)cc2)ccc1-c1cccnc1` [Cpd 179], in test [1], the IC50 stood at 266 nM, the inhibition at 1 µM was 81% and the inhibition at 5 µM came to 100%. The Ki in test [2] amounted to 67 nM.
Consider `Cc1cc(NC(=O)CCc2ccc(C(C)(C)C)cc2)ccc1-c1ccncc1` [Cpd 180], for which, in test [1], the Emax at 6 µM was found to be 96% and the inhibition at 1 µM is 91%. This compound registered a Ki in test [2] of 42 nM.
In the case of `CC(C)(C)c1ccc(CCC(=O)Nc2ccc(-c3ccncc3)c(F)c2)cc1` [Cpd 182], in test [1], the Emax at 6 µM turned out to be 97% and the inhibition at 1 µM was 80%. In addition, the Ki in test [2] was 55 nM.
Regarding `Cn1ccnc1-c1ccc(NC(=O)CCc2ccc(C(C)(C)C)cc2)cc1` [Cpd 189], in test [1], the “h % I (5 μM)” value stood at 63%. Also, the “h Binding % I (1 μM)” value in test [2] is listed as 4%.
Taken in the same sequence, the figures for `Cn1cnc(-c2ccc(NC(=O)CCc3ccc(C(C)(C)C)cc3)cc2)c1` [Cpd 190] were 98% and 56%.
In the case of `Cn1cncc1-c1ccc(NC(=O)CCc2ccc(C(C)(C)C)cc2)cc1` [Cpd 191], the IC50 in test [1] stood at 0.972 nM. In addition, in test [2], the inhibition at 1 µM was found to be 19%.
With `CC(C)(C)c1ccc(CCC(=O)Nc2ccc(C3CN=CO3)cc2)cc1` (stereo not shown) [Cpd 194], the “h % I (5 μM)” value in test [1] is on record as 94%. For the same compound, in test [2], the “h Binding % I (1 μM)” value stood at 45%.
Taken in the same sequence, the figures for `Cc1nc(-c2ccc(NC(=O)CCc3ccc(C(C)(C)C)cc3)cc2)cs1` [Cpd 195] were 20% and 75%.
In the case of `CC(C)(C)c1ccc(CCC(=O)Nc2ccc(-c3csnn3)cc2)cc1` [Cpd 197], the IC50 in test [1] came out at 0.283 nM. In addition, the “h Binding % I (1 μM)” value in test [2] is recorded as 62%.
As to `CC(C)(C)c1ccc(CCC(=O)Nc2ccc(-n3cncn3)cc2)cc1` [Cpd 198], the IC50 in test [1] is 3.82 nM. In addition, in test [2], the inhibition at 1 µM was 37%.
For the compound `CC(C)(C)c1ccc(CCC(=O)Nc2ccc(-c3nn[nH]n3)cc2)cc1` [Cpd 199], the “h % I (5 μM)” value in test [1] is 19%. Further, the “h Binding % I (1 μM)” value in test [2] is reported as 3%.
`CC1=NN(c2ccc(NC(=O)CCc3ccc(C(C)(C)C)cc3)cc2)C(=O)C1` [Cpd 201]: in test [1], the “h % I (5 μM)” value is listed as 57%. In test [2], the “h Binding % I (1 μM)” value came out at 1%.
Take `CC(C)(C)c1ccc(CCC(=O)Nc2cnc(-n3ccnc3)c(C(F)(F)F)c2)cc1` [Cpd 202, 3-(4-tert-Butyl-phenyl)-N-(6-imidazol-1-yl-5-trifluoromethyl-pyridin-3-yl)-propionamide]: in test [1], the IC50 was found to be 30.1 nM and the inhibition at 5 µM was 100%. Besides, the affinity in test [2], expressed as Ki, was 212 nM.
For `Cc1cc(NC(=O)CCc2ccc(C(F)(F)F)cc2)cnc1-n1cnc(Cl)c1Cl` [Cpd 203, N-[6-(4,5-Dichloro-imidazol-1-yl)-5-methyl-pyridin-3-yl]-3-(4-trifluoromethyl-phenyl)-propionamide], in test [1], the IC50 is 35.2 nM, the inhibition at 1 µM worked out at 99% and the inhibition at 5 µM worked out at 100%. Affinity in test [2] was put at a Ki of 34 nM.

One may read the Ki as a measure of affinity in units of concentration, obtained from inhibition or displacement. Read a high Ki as weaker binding. Usually IC50 stands for the concentration that inhibits the measured activity by half.

(Values after patent US20060223837A1 (priority 2005, published 2006).)
